The numbers were not newly measured in US12370168B2 (scPharmaceuticals Inc., priority 2013, dated 2025), which cites them from elsewhere.

For this series the following is noted: as described in the '361 patent; cited from earlier work.

`NC(CO)(CO)CO.NS(=O)(=O)c1cc(C(=O)O)c(NCc2ccco2)cc1Cl` [tris(hydroxymethyl)aminomethane salt of furosemide]: the pH is 6-6.5.
